Measurements reported in patent publication US11759455B2, “Substituted 1H-imidazo[4,5-b]pyridin-2(3H)-ones and their use as GLUN2B receptor modulators” (JANSSEN PHARMACEUTICA NV, priority 2016, dated 2023).
Like-named read-outs stand apart in the source and are kept apart here.

Target: T1, human GluN1/GluN2B NMDA receptors (Homo sapiens, UniProt Q13224)
T1 construct: expressed in transfected cells
Experiment: Cell-based calcium flux (FLIPR) assay on cloned human NR1/NR2B ion channels expressed in mammalian cells (standard and HTS buffer variants);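 note: stable Tet-On inducible cell line, Ca2+ influx triggered by glutamate at about EC40 plus 10 µM glycine, fluorescent dye read-out over 5 min, normalized to control wells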

[1] = standard assay buffer (0.5 mM MgCl2 in dye loading buffer; 137 mM NaCl, 4 mM KCl in assay buffer), human GluN1/GluN2B, read-out: NR2B IC50 (μM) standard assay
[2] = standard assay buffer (0.5 mM MgCl2 dye loading; 137 mM NaCl, 4 mM KCl assay buffer), human GluN1/GluN2B cells, read-out: NR2B IC50 (μM) standard assay
[3] = HTS assay buffer (1.5 mM MgCl2 in dye loading buffer; 150 mM NaCl, 3 mM KCl in assay buffer), human GluN1/GluN2B, read-out: NR2B IC50 (μM) HTS assay

T1 sequence (Q13224 27-1484, other chains not shown): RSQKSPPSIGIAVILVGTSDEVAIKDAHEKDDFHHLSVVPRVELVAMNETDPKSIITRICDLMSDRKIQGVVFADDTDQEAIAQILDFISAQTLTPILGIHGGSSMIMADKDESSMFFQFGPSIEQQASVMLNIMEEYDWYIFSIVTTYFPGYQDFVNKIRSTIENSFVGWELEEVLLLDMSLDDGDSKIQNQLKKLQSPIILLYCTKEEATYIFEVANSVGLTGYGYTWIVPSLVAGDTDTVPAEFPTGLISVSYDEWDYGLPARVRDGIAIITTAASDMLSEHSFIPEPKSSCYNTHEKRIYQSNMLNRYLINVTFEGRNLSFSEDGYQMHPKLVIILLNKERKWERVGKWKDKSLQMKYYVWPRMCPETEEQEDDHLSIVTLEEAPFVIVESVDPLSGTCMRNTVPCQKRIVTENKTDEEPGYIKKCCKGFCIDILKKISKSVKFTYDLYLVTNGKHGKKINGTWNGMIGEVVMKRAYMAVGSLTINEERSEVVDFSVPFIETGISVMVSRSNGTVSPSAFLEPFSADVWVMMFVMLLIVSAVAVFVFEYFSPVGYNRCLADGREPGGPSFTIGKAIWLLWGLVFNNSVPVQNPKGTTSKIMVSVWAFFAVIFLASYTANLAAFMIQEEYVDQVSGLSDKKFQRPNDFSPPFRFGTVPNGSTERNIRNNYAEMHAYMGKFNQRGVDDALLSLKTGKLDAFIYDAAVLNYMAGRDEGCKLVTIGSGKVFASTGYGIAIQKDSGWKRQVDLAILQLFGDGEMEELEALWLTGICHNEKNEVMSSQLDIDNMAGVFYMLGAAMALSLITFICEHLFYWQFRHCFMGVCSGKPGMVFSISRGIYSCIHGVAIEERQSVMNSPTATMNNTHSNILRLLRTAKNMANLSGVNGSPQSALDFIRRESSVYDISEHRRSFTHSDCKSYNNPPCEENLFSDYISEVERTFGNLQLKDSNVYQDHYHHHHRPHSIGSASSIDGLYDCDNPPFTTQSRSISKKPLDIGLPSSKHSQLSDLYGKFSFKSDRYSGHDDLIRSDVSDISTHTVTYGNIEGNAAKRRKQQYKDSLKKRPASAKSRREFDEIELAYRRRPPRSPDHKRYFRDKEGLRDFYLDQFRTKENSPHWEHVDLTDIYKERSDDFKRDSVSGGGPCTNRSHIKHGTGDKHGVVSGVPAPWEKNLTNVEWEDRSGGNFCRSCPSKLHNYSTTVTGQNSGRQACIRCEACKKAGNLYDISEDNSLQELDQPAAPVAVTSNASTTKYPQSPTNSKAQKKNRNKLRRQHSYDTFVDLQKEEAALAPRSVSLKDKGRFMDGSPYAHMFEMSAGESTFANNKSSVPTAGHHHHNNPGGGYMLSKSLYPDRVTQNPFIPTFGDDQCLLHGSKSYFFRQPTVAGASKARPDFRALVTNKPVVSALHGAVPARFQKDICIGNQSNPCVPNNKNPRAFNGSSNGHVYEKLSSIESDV

Work on `Cn1c(=O)n(CC(=O)N2CC(F)C2)c2cc(-c3ccc(F)c(F)c3)cnc21` [Example 403, 6-(3,4-Difluorophenyl)-1-[2-(3-fluoroazetidin-1-yl)-2-oxo-ethyl]-3-methyl-imidazo[4,5-b]pyridin-2-one] yielded an IC50 [1] of 0.042 µM.
In the case of `O=c1[nH]c2ncc(-c3ccc(F)c(F)c3)cc2n1Cc1ccccn1` [Example 279, 6-(3,4-Difluorophenyl)-1-(2-pyridylmethyl)-3H-imidazo[4,5-b]pyridin-2-one], the IC50 [2] is reported as 5.03 µM.
In the case of `CCC(=O)Cn1c(=O)n(C)c2ncc(-c3cccc(C(F)(F)F)c3)cc21` [Example 388, 3-Methyl-1-(2-oxobutyl)-6-[3-(trifluoromethyl)phenyl]imidazo[4,5-b]pyridin-2-one], the IC50 [1] is reported as 0.05 µM.
`Cn1c(=O)n(Cc2cncc(F)c2)c2cc(-c3ccc(F)c(F)c3F)cnc21` [Example 347, 1-[(5-Fluoro-3-pyridyl)methyl]-3-methyl-6-(2,3,4-trifluorophenyl)imidazo[4,5-b]pyridin-2-one] was tested, and the IC50 [1] was 0.621 µM.
In the case of `CC(C)(C)C(=O)Cn1c(=O)[nH]c2ncc(-c3cccc(C(F)(F)F)c3)cc21` [Example 611, 1-(3,3-Dimethyl-2-oxo-butyl)-6-[3-(trifluoromethyl)phenyl]-3H-imidazo[4,5-b]pyridin-2-one], the IC50 [1] is reported as 0.204 µM.
For `Cc1cc(C)cc(-c2cnc3[nH]c(=O)n(Cc4cccc(F)c4)c3c2)c1` [Example 495, 6-(3,5-Dimethylphenyl)-1-[(3-fluorophenyl)methyl]-3H-imidazo[4,5-b]pyridin-2-one], the IC50 [3] was 2.81 µM.
Molecule `Cc1csc(-c2cnc3[nH]c(=O)n(Cc4nc(C)no4)c3c2)c1` [Example 127, 1-[(3-Methyl-1,2,4-oxadiazol-5-yl)methyl]-6-(4-methyl-2-thienyl)-3H-imidazo[4,5-b]pyridin-2-one] has an IC50 [2] of 0.095 µM.
For `O=C(Cn1c(=O)[nH]c2ncc(-c3cc(F)cc(F)c3)cc21)NC1CC1` [Example 447, N-Cyclopropyl-2-[6-(3,5-difluorophenyl)-2-oxo-3H-imidazo[4,5-b]pyridin-1-yl]acetamide], the IC50 [1] was 0.184 µM.
`Cn1c(=O)n(Cc2cccnn2)c2cc(-c3cc(C(F)F)ccc3F)cnc21` [Example 385, 6-(5-(Difluoromethyl)-2-fluorophenyl)-3-methyl-1-(pyridazin-3-ylmethyl)-1,3-dihydro-2H-imidazo[4,5-b]pyridin-2-one] gave an IC50 [1] of 0.653 µM.
For `Cc1cncc(Cn2c(=O)[nH]c3ncc(-c4cccc(C(F)(F)F)c4)cc32)c1` [Example 242, 1-[(5-Methyl-3-pyridyl)methyl]-6-[3-(trifluoromethyl)phenyl]-3H-imidazo[4,5-b]pyridin-2-one], the IC50 [2] was 0.15 µM.
`O=c1[nH]c2ncc(-c3cccc(C(F)(F)F)c3)cc2n1CCN1CC(F)C1` [Example 163, 1-[2-(3-Fluoroazetidin-1-yl)ethyl]-6-[3-(trifluoromethyl)phenyl]-3H-imidazo[4,5-b]pyridin-2-one] showed an IC50 [2] of 0.246 µM.
Work on `Cn1c(=O)n(CC(=O)N2CCC2)c2cc(-c3ccc(Cl)c(OC(F)F)c3)cnc21` [Example 592, 1-[2-(Azetidin-1-yl)-2-oxo-ethyl]-6-[4-chloro-3-(difluoromethoxy)phenyl]-3-methyl-imidazo[4,5-b]pyridin-2-one] yielded an IC50 [1] of 0.071 µM.
`O=c1[nH]c2ncc(-c3cccc(C(F)F)c3)cc2n1Cc1cccnc1` [Example 291, 6-[3-(Difluoromethyl)phenyl]-1-(3-pyridylmethyl)-3H-imidazo[4,5-b]pyridin-2-one] was tested, and the IC50 [2] was 0.022 µM.
In the case of `Cc1nnc(Cn2c(=O)n(C)c3ncc(-c4ccc(C(F)F)s4)cc32)o1` [Example 560, 6-[5-(Difluoromethyl)-2-thienyl]-3-methyl-1-[(5-methyl-1,3,4-oxadiazol-2-yl)methyl]imidazo[4,5-b]pyridin-2-one], the IC50 [1] is reported as 0.304 µM.
`COc1cc(F)ccc1-c1cnc2[nH]c(=O)n(CC(=O)c3cccs3)c2c1` [Example 462, 6-(4-Fluoro-2-methoxy-phenyl)-1-[2-oxo-2-(2-thienyl)ethyl]-3H-imidazo[4,5-b]pyridin-2-one] was tested, and the IC50 [1] was 0.255 µM.
`Cc1noc(Cn2c(=O)n(C)c3ncc(-c4ccc(C(F)F)s4)cc32)n1` [Example 563, 6-[5-(Difluoromethyl)-2-thienyl]-3-methyl-1-[(3-methyl-1,2,4-oxadiazol-5-yl)methyl]imidazo[4,5-b]pyridin-2-one] showed an IC50 [1] of 0.316 µM.
With `Cc1cccc(-c2cnc3c(c2)n(CC(=O)N2CC(F)(F)C2)c(=O)n3C)c1` [Example 581, 1-[2-(3,3-Difluoroazetidin-1-yl)-2-oxo-ethyl]-3-methyl-6-(m-tolyl)imidazo[4,5-b]pyridin-2-one] the IC50 [1] was 0.032 µM.
In the case of `COC1CCN(CCn2c(=O)[nH]c3ncc(-c4cc(F)cc(F)c4)cc32)C1` (stereo not shown) [Example 176, 6-(3,5-Difluorophenyl)-1-[2-(3-methoxypyrrolidin-1-yl)ethyl]-3H-imidazo[4,5-b]pyridin-2-one], the IC50 [2] is reported as 4.37 µM.
`N#Cc1ccccc1Cn1c(=O)[nH]c2ncc(-c3ccc(Cl)cc3)cc21` [Example 482, 2-[[6-(4-Chlorophenyl)-2-oxo-3H-imidazo[4,5-b]pyridin-1-yl]methyl]benzonitrile] showed an IC50 [3] of 1.41 µM.
`Cn1c(=O)n(CC(=O)N2CC(F)C2)c2cc(-c3ccc(F)c(C(F)F)c3)cnc21` [Example 585, 6-[3-(Difluoromethyl)-4-fluoro-phenyl]-1-[2-(3-fluoroazetidin-1-yl)-2-oxo-ethyl]-3-methyl-imidazo[4,5-b]pyridin-2-one] was tested, and the IC50 [1] was 0.018 µM.
Work on `Cn1cnc(Cn2c(=O)[nH]c3ncc(-c4ccc(F)cc4)cc32)n1` [Example 141, 6-(4-Fluorophenyl)-1-[(1-methyl-1,2,4-triazol-3-yl)methyl]-3H-imidazo[4,5-b]pyridin-2-one] yielded an IC50 [2] of 1.18 µM.
Work on `O=c1[nH]c2ncc(-c3cccc(C(F)(F)F)c3)cc2n1Cc1cncc(F)c1` [Example 258, 1-[(5-Fluoro-3-pyridyl)methyl]-6-[3-(trifluoromethyl)phenyl]-3H-imidazo[4,5-b]pyridin-2-one] yielded an IC50 [2] of 0.077 µM.
For `O=c1[nH]c2ncc(-c3cccc(Cl)c3)cc2n1Cc1cncc(F)c1` [Example 305, 6-(3-Chlorophenyl)-1-[(5-fluoro-3-pyridyl)methyl]-3H-imidazo[4,5-b]pyridin-2-one], the IC50 [2] was 0.013 µM.
Work on `O=c1[nH]c2ncc(-c3cccc(C(F)(F)F)c3)cc2n1Cc1csnn1` [Example 243, 1-(Thiadiazol-4-ylmethyl)-6-[3-(trifluoromethyl)phenyl]-3H-imidazo[4,5-b]pyridin-2-one] yielded an IC50 [2] of 0.065 µM.
`Cn1c(=O)n(Cc2ncccn2)c2cc(-c3ccc(F)c(F)c3)cnc21` [Example 64, 6-(3,4-Difluorophenyl)-3-methyl-1-(pyrimidin-2-ylmethyl)imidazo[4,5-b]pyridin-2-one] showed an IC50 [2] of 3.59 µM.
In the case of `CNC(=O)Cn1c(=O)[nH]c2ncc(-c3ccc(OC)c(C)c3)cc21` [Example 439, 2-[6-(4-Methoxy-3-methyl-phenyl)-2-oxo-3H-imidazo[4,5-b]pyridin-1-yl]-N-methyl-acetamide], the IC50 [3] is reported as 3.37 µM.
`Cn1c(=O)n(CC(=O)N2CCC2)c2cc(-c3cc(F)cc(F)c3)cnc21` [Example 412, 1-[2-(Azetidin-1-yl)-2-oxo-ethyl]-6-(3,5-difluorophenyl)-3-methyl-imidazo[4,5-b]pyridin-2-one] gave an IC50 [1] of 0.027 µM.
With `CCOc1ccc(F)cc1-c1cnc2[nH]c(=O)n(Cc3ccccc3C#N)c2c1` [Example 489, 2-[[6-(2-Ethoxy-5-fluoro-phenyl)-2-oxo-3H-imidazo[4,5-b]pyridin-1-yl]methyl]benzonitrile] the IC50 [3] was 1.28 µM.
`Cn1c(=O)n(CC(=O)N2CC(F)C2)c2cc(-c3csc(C(F)(F)F)n3)cnc21` [Example 109, 1-[2-(3-Fluoroazetidin-1-yl)-2-oxo-ethyl]-3-methyl-6-[2-(trifluoromethyl)thiazol-4-yl]imidazo[4,5-b]pyridin-2-one] gave an IC50 [2] of 0.04 µM.
`Cc1ccc(Cn2c(=O)[nH]c3ncc(-c4cccc(C(F)(F)F)c4)cc32)cn1` [Example 235, 1-[(6-Methyl-3-pyridyl)methyl]-6-[3-(trifluoromethyl)phenyl]-3H-imidazo[4,5-b]pyridin-2-one] was tested, and the IC50 [2] was 0.256 µM.
`Cn1c(=O)n(Cc2ncccn2)c2cc(-c3cccc(F)c3)cnc21` [Example 56, 6-(3-Fluorophenyl)-3-methyl-1-(pyrimidin-2-ylmethyl)imidazo[4,5-b]pyridin-2-one] was tested, and the IC50 [2] was 8.71 µM.
With `Cn1c(=O)n(Cc2cncc(Cl)c2)c2cc(-c3cccc(F)c3F)cnc21` [Example 375, 1-[(5-Chloro-3-pyridyl)methyl]-6-(2,3-difluorophenyl)-3-methyl-imidazo[4,5-b]pyridin-2-one] the IC50 [1] was 1.51 µM.
In the case of `O=c1[nH]c2ncc(-c3cccc(C(F)(F)F)c3)cc2n1CC1(F)COC1` [Example 226, 1-[(3-Fluorooxetan-3-yl)methyl]-6-[3-(trifluoromethyl)phenyl]-3H-imidazo[4,5-b]pyridin-2-one], the IC50 [2] is reported as 0.8 µM.
With `Cc1cc(C)cc(-c2cnc3[nH]c(=O)n(Cc4cc(C)on4)c3c2)c1` [Example 516, 6-(3,5-Dimethylphenyl)-1-[(5-methylisoxazol-3-yl)methyl]-3H-imidazo[4,5-b]pyridin-2-one] the IC50 [1] was 0.491 µM.
`O=c1[nH]c2ncc(-c3cccc(C(F)(F)F)c3)cc2n1Cc1ccc(F)nc1` [Example 238, 1-[(6-Fluoro-3-pyridyl)methyl]-6-[3-(trifluoromethyl)phenyl]-3H-imidazo[4,5-1D]pyridin-2-one] showed an IC50 [2] of 0.088 µM.
`Cn1ccc(Cn2c(=O)[nH]c3ncc(-c4ccc(F)cc4F)cc32)n1` [Example 132, 6-(2,4-Difluorophenyl)-1-[(1-methylpyrazol-3-yl)methyl]-3H-imidazo[4,5-b]pyridin-2-one] was tested, and the IC50 [2] was 6.76 µM.
Molecule `O=c1[nH]c2ncc(-c3cccc(C(F)(F)F)c3)cc2n1CCNC1CC1` [Example 148, 1-[2-(Cyclopropylamino)ethyl]-6-[3-(trifluoromethyl)phenyl]-3H-imidazo[4,5-b]pyridin-2-one] has an IC50 [2] of 0.505 µM.
